Results from US8835428B2, “Diacylglycerol acyltransferase inhibitors” (Piramal Enterprises Limited, priority 2008, dated 2014).

Target: T1, hDGAT1 (Homo sapiens, UniProt O75907)
T1 construct: host or cells: Sf9 insect cells (baculovirus); microsomal preparation
T1 sequence (O75907 1-488): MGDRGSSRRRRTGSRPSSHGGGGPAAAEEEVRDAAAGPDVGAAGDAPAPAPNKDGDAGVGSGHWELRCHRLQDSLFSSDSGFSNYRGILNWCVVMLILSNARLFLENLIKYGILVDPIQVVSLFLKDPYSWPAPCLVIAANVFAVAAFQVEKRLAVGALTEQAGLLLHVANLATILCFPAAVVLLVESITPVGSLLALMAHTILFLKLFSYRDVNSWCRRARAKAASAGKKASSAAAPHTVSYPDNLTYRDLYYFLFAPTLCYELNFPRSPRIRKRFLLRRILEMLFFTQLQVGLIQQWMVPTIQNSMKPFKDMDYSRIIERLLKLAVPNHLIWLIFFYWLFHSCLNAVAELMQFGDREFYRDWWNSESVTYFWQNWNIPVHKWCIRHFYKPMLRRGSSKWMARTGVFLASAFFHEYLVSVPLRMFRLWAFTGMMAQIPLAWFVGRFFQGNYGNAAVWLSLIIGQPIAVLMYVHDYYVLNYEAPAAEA
Experiment: In-vitro DGAT1 assay (hDGAT1 microsomes from Sf9 cells, 14C oleoyl CoA, triglyceride formation)
Assay type: biochemical
Conditions: At 10 μM
Description: In-vitro Protocol for DGAT1 Assay
Sf9 Culture and Treatment
Sf9 cells were grown in T25 flasks containing Graces's Insect media with 10% FBS with antibiotic (100 units/mL penicillin, 100 μg/mL streptomycin sulphate, 0.25 μg/mL Amptotericin B as Fungizone) grown in a 27° C. incubator:
hDGAT1ORF expression clone (RZPDo839C09146 in pDEST vector) was obtained from RZPD, Germany. hDGAT1 bacmid DNA was obtained by transformation of the hDGAT expression clone into DH10Bac E. coli competent cells. Approximately 1 μg of hDGAT1 bacmid DNA was infected into Sf9 cells with Cellfectin (Invitrogen) reagent. Following infection, Sf9 cells were incubated at 27° C. for 30 minutes. Five hours after infection, the media was replaced with growth media containing antibiotic (100 units/mL penicillin, 100 μg/mL streptomycin sulphate, 0.25 μg/mL Amptotericin B as Fungizone) and incubated at 27° C. for 72 hours. The supernatant containing the virus was centrifuged at 1500×g for 5 minutes, passed through 0.22 μm filter, and subsequently stored at 4° C. The virus was further amplified three more times by re-infection of Sf9 cells and the viral titer was determined by plaque assay.
Preparation of DGAT1 Microsomes from Sf9 Cells
Sf9 cells were seeded in spinner flasks on day 0 at a cell density of 1×10^6 and infected on day 1 with hDGAT1 baculovirus at a multiplicity of infection (MOI) of 5 and a cell density of 2×10^6. On day 3 (or 66-72 hours), cells were harvested and centrifuged at 2500×g for 10 minutes. Pellet was resuspended in lysis buffer (100 mM sucrose, 50 mM KCl, 40 mM KH2PO4, 30 mM EDTA, pH 7.2) and passed through 21-gauge needle approximately 10 times. The mixture was centrifuged at 12,000 rpm in a Sigma 12158-H rotor at 4° C. for 30 minutes. The supernatant was subjected to centrifugation at 35,000 rpm in a Beckman Ti-45 rotor at 4° C. for 1 hour. The resultant pellet containing the microsomes were resuspended overnight in 1 mL of lysis buffer and total protein concentration was estimated using Bradford Reagent. Microsomes were aliquoted and stored at −20° C.
Measurement of DGAT1 Activity
Frozen aliquots of hDGAT1 containing microsomes were thawed (5-10 mg/mL total protein) on ice and diluted to a working stock of 1 mg/mL with DGAT Assay Buffer (DAB). The DGAT reaction assay was performed by following the procedure described in U.S. Pat. No. 6,607,893 with some modifications that are described below.
Preparation of DGAT1 substrate mixture: 1 mL stock solution of DGAT1 substrate mixture contains (i) 5.6 μL of ^14C oleoyl CoA (16.8 nCi) and 35 μL 1,2-dioleoyl-sn-glycerol (409.5 μM) or (ii) 5.6 μL of ^14C oleoyl CoA (16.8 nCi) and 105 μL 1,2-dioleoyl-sn-glycerol (1228.5 μM) or (iii) 5.6 μL of ^14C oleoyl CoA (16.8 nCi) and 140 μL 1,2-dioleoyl-sn-glycerol (1638 μM).
1,2-sn-dioleoylglycerol substrate concentration in the 1 mL stock solution of DGAT1 substrate mixture was varied depending on the microsome concentration used in the assay reaction. 1,2-dioleoyl-sn-glycerol stock (19.5 mM) was prepared by dissolving 25 mg of 1,2-dioleoyl-sn-glycerol (Sigma, US) in 2060 μL of acetone. The assay was performed in duplicates in a reaction volume of 100 μL. The reaction volume consisted of: • (i) 27.5 μL of DGAT assay buffer (0.25M Sucrose, 1 mM EDTA (pH 8.0), 150 mM Tris-HCl, pH 7.4, 1.25 mg/mL, fatty acid free BSA), • (ii) 10 μL of compound, of present invention or standard (dissolved in DMSO and diluted to 10× with DAB and screened at 10 μM, 5 μM and 1 μM), • (iii) 60 μL DGAT1 substrate mixture taken from a 1 mL stock (16.8 nCi of ^14C oleoyl CoA and 409.5 μM or 1228.5 μM or 1638 μM of 1,2-dioleyl-sn-glycerol), • (iv) 2.5-10 μL of 1 mg/mL of microsomes (the amount of assay buffer was varied depending upon the concentration of microsome to make up the volume to 100 μL). Procedure:
The reaction was started by the addition of 2.5-10 μL of 1 mg/mL of microsomes (iv) to a mixture of (i), (ii) and (iii), vortexed and incubated at 37° C. for 10 minutes. […]

Row | SMILES | inhibition at 10 µM [%]
1 | CCOC(=O)c1cc(-c2cccc(Nc3nc4ccc(F)cc4s3)c2)no1 [Example 20, 3-[3-(6-Fluoro-benzothiazol-2-ylamino)-phenyl]-isoxazole-5-carboxylic acid ethyl ester] | 0 to 50
2 | O=C(O)c1cc(-c2cccc(Nc3nc4ccc(F)cc4s3)c2)no1 [Example 21, 3-[3-(6-Fluoro-benzothiazol-2-ylamino)-phenyl]-isoxazole-5-carboxylic acid] | 0 to 50
3 | COC(=O)[C@@H](NC(=S)c1cc(-c2cccc(Nc3nc4ccc(F)cc4s3)c2)no1)C(C)C [Example 24, (S)-2-({3-[3-(6-Fluoro-benzothiazol-2-ylamino)-phenyl]-isoxazole-5-carbothioyl}-amino)-3-methyl-butyric acid methyl ester] | 0 to 50
4 | CC(C)[C@H](NC(=S)c1cc(-c2cccc(Nc3nc4ccc(F)cc4s3)c2)no1)C(=O)O [Example 25, (S)-2-({3-[3-(6-Fluoro-benzothiazol-2-ylamino)-phenyl]-isoxazole-5-carbothioyl}-amino)-3-methyl-butyric acid] | 0 to 50
5 | COC(=O)[C@@H](NC(=NO)c1cc(-c2cccc(Nc3nc4ccc(F)cc4s3)c2)no1)C(C)C [Example 26, (S)-2-({3-[3-(6-Fluoro-benzothiazol-2-ylamino)-phenyl]-N-hydroxy-isoxazole-5-carboximidoyl}-amino)-3-methyl-butyric acid methyl ester] | 0 to 50
6 | CC(C)[C@H](NC(=NO)c1cc(-c2cccc(Nc3nc4ccc(F)cc4s3)c2)no1)C(=O)O [Example 27, (S)-2-({3-[3-(6-Fluoro-benzothiazol-2-ylamino)-phenyl]-N-hydroxy-isoxazole-5-carboximidoyl}-amino)-3-methyl-butyric acid] | 0 to 50
7 | COC[C@H](NC(=O)c1cc(-c2cccc(Nc3nc4ccc(F)cc4s3)c2)no1)C(=O)O [Example 29, (S)-2-({3-[3-(6-Fluoro-benzothiazol-2-ylamino)-phenyl]-isoxazole-5-carbonyl}-amino)-3-methoxy-propionic acid] | 0 to 50
8 | COC[C@H](NC(=S)c1cc(-c2cccc(Nc3nc4ccc(F)cc4s3)c2)no1)C(=O)OC [Example 30, (S)-2-({3-[3-(6-Fluoro-benzothiazol-2-ylamino)-phenyl]-isoxazole-5-carbothioyl}-amino)-3-methoxy-propionic acid methyl ester] | 0 to 50
9 | COC[C@H](NC(=NO)c1cc(-c2cccc(Nc3nc4ccc(F)cc4s3)c2)no1)C(=O)O [Example 33, (S)-2-({3-[3-(6-Fluoro-benzothiazol-2-ylamino)-phenyl]-N-hydroxy-isoxazole-5-carboximidoyl}-amino)-3-methoxy-propionic acid] | 0 to 50
10 | O=C(O)[C@@H]1CCCN1C(=O)c1cc(-c2cccc(Nc3nc4ccc(F)cc4s3)c2)no1 [Example 35, (S)-1-{3-[3-(6-Fluoro-benzothiazol-2-ylamino)-phenyl]-isoxazole-5-carbonyl}-pyrrolidine-2-carboxylic acid] | 0 to 50
11 | COC(=O)[C@@H]1CCCN1C(=S)c1cc(-c2cccc(Nc3nc4ccc(F)cc4s3)c2)no1 [Example 36, (S)-1-{3-[3-(6-Fluoro-benzothiazol-2-ylamino)-phenyl]-isoxazole-5-carbothioyl}-pyrrolidine-2-carboxylic acid methyl ester] | 50 to 75
12 | O=C(O)[C@@H]1CCCN1C(=S)c1cc(-c2cccc(Nc3nc4ccc(F)cc4s3)c2)no1 [Example 37, (S)-1-{3-[3-(6-Fluoro-benzothiazol-2-ylamino)-phenyl]-isoxazole-5-carbothioyl}-pyrrolidine-2-carboxylic acid] | 0 to 50
13 | COC(=O)[C@H](NC(=O)c1cc(-c2ccc(Nc3nc4ccc(F)cc4s3)cc2)no1)C(C)C [Example 38, (R)-2-({3-[4-(6-Fluoro-benzothiazol-2-ylamino)-phenyl]-isoxazole-5-carbonyl}-amino)-3-methyl-butyric acid methyl ester] | 50 to 75

Now from value to molecule:

Row | inhibition at 10 µM [%] | SMILES
14 | 0 to 50 | COC(=O)[C@@H](NC(=O)c1cc(-c2cccc(Nc3nc4ccc(F)cc4s3)c2)no1)C(C)C [Example 22, (S)-2-({3-[3-(6-Fluoro-benzothiazol-2-ylamino)-phenyl]-isoxazole-5-carbonyl}-amino)-3-methyl-butyric acid methyl ester]
15 | 0 to 50 | CC(C)[C@H](NC(=O)c1cc(-c2cccc(Nc3nc4ccc(F)cc4s3)c2)no1)C(=O)O [Example 23, (S)-2-({3-[3-(6-Fluoro-benzothiazol-2-ylamino)-phenyl]-isoxazole-5-carbonyl}-amino)-3-methyl-butyric acid]
16 | 0 to 50 | COC[C@H](NC(=O)c1cc(-c2cccc(Nc3nc4ccc(F)cc4s3)c2)no1)C(=O)OC [Example 28, (S)-2-({3-[3-(6-Fluoro-benzothiazol-2-ylamino)-phenyl]-isoxazole-5-carbonyl}-amino)-3-methoxy-propionic acid methyl ester]
17 | 0 to 50 | COC[C@H](NC(=S)c1cc(-c2cccc(Nc3nc4ccc(F)cc4s3)c2)no1)C(=O)O [Example 31, (S)-2-({3-[3-(6-Fluoro-benzothiazol-2-ylamino)-phenyl]-isoxazole-5-carbothioyl}-amino)-3-methoxy-propionic acid]
18 | 0 to 50 | COC[C@H](NC(=NO)c1cc(-c2cccc(Nc3nc4ccc(F)cc4s3)c2)no1)C(=O)OC [Example 32, (S)-2-({3-[3-(6-Fluoro-benzothiazol-2-ylamino)-phenyl]-N-hydroxy-isoxazole-5-carboximidoyl}-amino)-3-methoxy-propionic acid methyl ester]
19 | 0 to 50 | COC(=O)[C@@H]1CCCN1C(=O)c1cc(-c2cccc(Nc3nc4ccc(F)cc4s3)c2)no1 [Example 34, (S)-1-{3-[3-(6-Fluoro-benzothiazol-2-ylamino)-phenyl]-isoxazole-5-carbonyl}-pyrrolidine-2-carboxylic acid methyl ester]
20 | 0 to 50 | COC(=O)[C@H](NC(=S)c1cc(-c2ccc(Nc3nc4ccc(F)cc4s3)cc2)no1)C(C)C [Example 39, (R)-2-({3-[4-(6-Fluoro-benzothiazol-2-ylamino)-phenyl]-isoxazole-5-carbothioyl}-amino)-3-methyl-butyric acid methyl ester]
